Residues, ends and D or L forms follow the SMILES beside them. *: point of attachment. OBn = c1ccc(CO*)cc1
Columns and labels:
CCRF S-180 [1] = experiment: Antiproliferative activity against mouse S180 cells after 48 hrs by MTT assay; format: functional, cell-based; details: CCRF S-180, 48 h
K562 = experiment: Antiproliferative activity against human K562 cells after 48 hrs by MTT assay; format: functional, cell-based; details: K562, 48 h
B16 = experiment: Antiproliferative activity against mouse B16 cells after 48 hrs by MTT assay; format: functional, cell-based; details: B16, 48 h
H22 = experiment: Antiproliferative activity against mouse H22 cells after 48 hrs by MTT assay; format: functional, cell-based; details: H22, 48 h
HepG2 = experiment: Antiproliferative activity against human HepG2 cells after 48 hrs by MTT assay; format: functional, cell-based; details: HepG2, 48 h
CCRF S-180 [2] = experiment: Antitumor activity against mouse S180 cells allografted in ICR mouse assessed as tumor growth inhibition at 8.9 mg/kg, ip qd for 7 days relative to control; format: functional; details: CCRF S-180, ip, 168 h, route intraperitoneal, read-out: TGI
Mus musculus [3] = experiment: Toxicity in mouse S180 cells allografted ICR mouse assessed as liver weight at 8.9 mg/kg, ip qd for 7 days relative to control; format: organism-based, CCRF S-180; parameters: dose 8.9 mg/kg, route intraperitoneal; details: in vivo, 168 h
Mus musculus [4] = experiment: Toxicity in mouse S180 cells allografted ICR mouse assessed as brain weight at 8.9 mg/kg, ip qd for 7 days relative to control; format: organism-based, CCRF S-180; parameters: dose 8.9 mg/kg, route intraperitoneal; details: in vivo, 168 h
Mus musculus [5] = experiment: Toxicity in mouse S180 cells allografted ICR mouse assessed as kidney weight at 8.9 mg/kg, ip qd for 7 days relative to control; format: organism-based, CCRF S-180; parameters: dose 8.9 mg/kg, route intraperitoneal; details: in vivo, 168 h
Mus musculus [6] = experiment: Toxicity in mouse S180 cells allografted ICR mouse assessed as spleen index at 8.9 mg/kg, ip qd for 7 days relative to control; format: organism-based, CCRF S-180; parameters: dose 8.9 mg/kg, route intraperitoneal; details: in vivo, 168 h
Mus musculus [7] = experiment: Toxicity in mouse S180 cells allografted ICR mouse assessed as increase of body weight at 8.9 mg/kg, ip qd for 7 days relative to control; format: organism-based, CCRF S-180; parameters: dose 8.9 mg/kg, route intraperitoneal; details: in vivo, 168 h
Mus musculus [8] = experiment: Neurotoxicity in ICR mouse assessed as neurotoxic behavior up to 500 mg/kg, ip after 7 days; format: toxicity, organism-based; parameters: dose 500 mg/kg, route intraperitoneal; details: in vivo, 168 h
Mus musculus [9] = experiment: Toxicity in ICR mouse assessed as mortality up to 500 mg/kg, ip after 7 days; format: organism-based; parameters: dose 500 mg/kg, route intraperitoneal; details: in vivo, 168 h
Mus musculus [10] = experiment: Toxicity in ICR mouse assessed as changes in organs up to 500 mg/kg, ip after 7 days by necropsy analysis; format: organism-based; parameters: dose 500 mg/kg, route intraperitoneal; details: in vivo, 168 h
[11] = Acute toxicity in ip dosed ICR mouse after 7 days; format: organism-based; details: in vivo

| Compound | IC50 (CCRF S-180 [1]) [µM] | IC50 (K562) [µM] | IC50 (B16) [µM] | IC50 (HepG2) [µM] | IC50 (H22) [µM] | inhibition in vivo at 8.9 mg/kg (CCRF S-180 [2]) [%] | Activity (Mus musculus [3]) | Activity (Mus musculus [4]) | Activity (Mus musculus [5]) | Activity (Mus musculus [6]) | Activity (Mus musculus [7]) | Activity (Mus musculus [8]) | Activity (Mus musculus [9]) | Activity (Mus musculus [10]) | LD50 at 168 h [11] [mg/kg] |
| --- | --- | --- | --- | --- | --- | --- | --- | --- | --- | --- | --- | --- | --- | --- | --- |
| CC[C@H](C)[C@H](N)C(=O)N[C@@H](Cc1c[nH]c2ccccc12)C(=O)N[C@@H](Cc1c[nH]c2ccccc12)C(=O)OCc1ccccc1 (H-Ile-Trp-Trp-OBn) | 15.1 | 16.2 | 17.2 | 15.1 | 16.1 | 80.1 | Non-toxic | Non-toxic | Non-toxic | Non-toxic | Toxic | Non-toxic | Non-toxic | Non-toxic | > 500 |
| NCCCC[C@H](N)C(=O)N[C@@H](Cc1c[nH]c2ccccc12)C(=O)N[C@@H](Cc1c[nH]c2ccccc12)C(=O)OCc1ccccc1 (H-Lys-Trp-Trp-OBn) | 33 | 34.5 | 57.4 | 25.9 | 33 | 15 | Non-toxic | Non-toxic | Non-toxic | Non-toxic | Toxic |  |  |  |  |
| CSCC[C@H](N)C(=O)N[C@@H](Cc1c[nH]c2ccccc12)C(=O)N[C@@H](Cc1c[nH]c2ccccc12)C(=O)OCc1ccccc1 (H-Met-Trp-Trp-OBn) | 19.8 | 17 | 25.2 | 24.3 | 17.5 | 61.5 | Non-toxic | Non-toxic | Non-toxic | Non-toxic | Toxic | Non-toxic | Non-toxic | Non-toxic | > 500 |
| N[C@@H](Cc1ccccc1)C(=O)N[C@@H](Cc1c[nH]c2ccccc12)C(=O)N[C@@H](Cc1c[nH]c2ccccc12)C(=O)OCc1ccccc1 (H-Phe-Trp-Trp-OBn) | 34 | 43.7 | 34 | 41.2 | 37.6 | 24.7 | Non-toxic | Non-toxic | Non-toxic | Non-toxic | Toxic | Non-toxic | Non-toxic | Non-toxic | > 500 |
| O=C(N[C@@H](Cc1c[nH]c2ccccc12)C(=O)N[C@@H](Cc1c[nH]c2ccccc12)C(=O)OCc1ccccc1)[C@@H]1CCCN1 (H-Pro-Trp-Trp-OBn) | 76 | 91.8 | 94 | 91.7 | 91.5 | 12.5 | Non-toxic | Non-toxic | Non-toxic | Non-toxic | Toxic |  |  |  |  |
| N[C@@H](Cc1c[nH]c2ccccc12)C(=O)N[C@@H](Cc1c[nH]c2ccccc12)C(=O)N[C@@H](Cc1c[nH]c2ccccc12)C(=O)OCc1ccccc1 (H-Trp-Trp-Trp-OBn) | 142 | 164 | 162 | 163 | 106 | -19.1 | Non-toxic | Non-toxic | Non-toxic | Non-toxic | Toxic |  |  |  |  |

Now from value to molecule, other results behind:

| IC50 (CCRF S-180 [1]) [µM] | IC50 (K562) [µM] | IC50 (B16) [µM] | IC50 (HepG2) [µM] | Compound | IC50 (H22) [µM] | inhibition in vivo at 8.9 mg/kg (CCRF S-180 [2]) [%] | Activity (Mus musculus [3]) | Activity (Mus musculus [4]) | Activity (Mus musculus [5]) | Activity (Mus musculus [6]) | Activity (Mus musculus [7]) | Activity (Mus musculus [8]) | Activity (Mus musculus [9]) | Activity (Mus musculus [10]) | LD50 at 168 h [11] [mg/kg] |
| --- | --- | --- | --- | --- | --- | --- | --- | --- | --- | --- | --- | --- | --- | --- | --- |
| 36.7 | 37.9 | 53.4 | 41.5 | CC(C)C[C@H](N)C(=O)N[C@@H](Cc1c[nH]c2ccccc12)C(=O)N[C@@H](Cc1c[nH]c2ccccc12)C(=O)OCc1ccccc1 (H-Leu-Trp-Trp-OBn) | 36 | 13.8 | Non-toxic | Non-toxic | Non-toxic | Non-toxic | Toxic |  |  |  |  |
| 155 | 173 | 182 | 155 | C[C@@H](O)[C@H](N)C(=O)N[C@@H](Cc1c[nH]c2ccccc12)C(=O)N[C@@H](Cc1c[nH]c2ccccc12)C(=O)OCc1ccccc1 (H-Thr-Trp-Trp-OBn) | 153 | -7.66 | Non-toxic | Non-toxic | Non-toxic | Non-toxic | Toxic |  |  |  |  |
